Eight molecules from article doi:10.1101/2024.01.22.576576v1, “Phenotypic screening of covalent compound libraries identifies chloromethyl ketone antibiotics and MiaA as a new target” (biorxiv, 2024) can be followed below.

In brackets after ≈: the same amount, converted by molar mass. Read-outs that look alike come from different tables or passages of the source.

The subject of one assay is T1, V. cholerae SAD30.
T1 construct: SAD30
As to the kind of experiment: microbe, parasite or virus in culture. Set-up: species or system bacterial strain; broth microdilution MIC, OD600, lowest concentration without visible bacterial growth. The following applies: Vibrio cholerae, SAD30, read-out: MIC VC. The method, then:
(§1) MIC measurement. The minimum inhibitory concentrations (MICs) of compounds were measured using the broth microdilution method.1 One stab using 10 µL tip from bacteria glycerol stock was inoculated into 5 mL of LB supplemented with selection antibiotics (Kanamycin for Keio collections and chloramphenicol for ASKA collections), and the culture was incubated at 37 °C with shaking overnight. […] The plate was incubated at 37 °C for 16 ~ 20 h with shaking at 80 rpm and the OD600 was measured using Cytation 5 plate reader (BioTek). MIC was determined as the lowest concentration for which no bacterial growth was observed. LB was used as the growth media for all the bacteria strains unless otherwise mentioned. For S. aureus and A. baumannii strains, tryptic soy broth (TSB, BD, DF0370-17-3) was used as the growth media instead of LB. For P. aeruginosa and K. pneumoniae strains, nutrient broth (NB, RPI, N15100) was used as growth media. All MIC measurements were performed in at least biological duplicates.

A further assay relates to T2, E. coli JPN15.
T2 construct: JPN15 (EPEC)
In words: microbe, parasite or virus in culture. Details: species or system bacterial strain; broth microdilution MIC, OD600, lowest concentration without visible bacterial growth. To be noted: Escherichia coli, JPN15, read-out: MIC EC. The method, then: as §1

In the next assay the test system is T3, S. aureus MSSA476.
T3 construct: MSSA476
As to the kind of experiment: microbe, parasite or virus in culture. Set-up: species or system bacterial strain; broth microdilution MIC, OD600, lowest concentration without visible bacterial growth. The following applies: Staphylococcus aureus, MSSA476, read-out: MIC SA. The method, then:
as §1

The subject of assay [1] is T4, S. flexneri M90T.
T4 construct: M90T
In words: microbe, parasite or virus in culture. Details: species or system bacterial strain; broth microdilution MIC, OD600, lowest concentration without visible bacterial growth. The following applies: Shigella flexneri, read-out: MIC SF. The method, then: as §1

In assay [2] the test system is S. flexneri M90T. In words: microbe, parasite or virus in culture. To be noted: Shigella flexneri, read-out: MIC SF. The method, then:
as §1

Assay [3] concerns the target T5, Sf_MiaA (Shigella flexneri, UniProt P59197).
T5 construct: gene miaA; recombinant, purified from E. coli BL21; two cysteines in total; also native protein in live S. flexneri M90T (ABPP row)
T5 sequence (P59197 1-316): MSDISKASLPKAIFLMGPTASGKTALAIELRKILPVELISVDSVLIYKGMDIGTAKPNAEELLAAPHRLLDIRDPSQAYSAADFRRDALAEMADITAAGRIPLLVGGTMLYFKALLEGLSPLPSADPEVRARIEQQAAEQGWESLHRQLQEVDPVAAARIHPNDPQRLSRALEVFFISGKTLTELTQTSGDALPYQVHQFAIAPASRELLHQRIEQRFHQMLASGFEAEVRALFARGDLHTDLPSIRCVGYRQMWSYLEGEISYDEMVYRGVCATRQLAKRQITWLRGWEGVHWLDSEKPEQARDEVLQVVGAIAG
In words: in-gel fluorescence competition with 5-TMRIA. The following applies: covalent; Cys273; 1 h preincubation. Type of assay: binding.

Another assay concerns the target T6, Sa_FabH (Staphylococcus aureus, UniProt Q6GAU3).
T6 construct: gene fabH; purified protein
T6 sequence (Q6GAU3 1-313): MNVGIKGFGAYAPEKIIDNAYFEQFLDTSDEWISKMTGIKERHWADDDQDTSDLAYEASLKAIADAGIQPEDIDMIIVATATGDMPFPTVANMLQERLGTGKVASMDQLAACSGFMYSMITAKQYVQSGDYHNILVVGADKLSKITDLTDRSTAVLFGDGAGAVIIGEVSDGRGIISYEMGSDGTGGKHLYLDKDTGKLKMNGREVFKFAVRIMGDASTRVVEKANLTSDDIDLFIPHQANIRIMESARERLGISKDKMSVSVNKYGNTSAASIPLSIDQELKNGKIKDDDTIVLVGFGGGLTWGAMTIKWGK
In words: in-gel fluorescence competition with 5-TMRIA. The assay is classed as binding. The following applies: covalent.

The target of assay [4] is T5, Sf_MiaA. In words: i6A-37 tRNA formation followed by LC-MS after preincubation. The assay is classed as biochemical. To be noted: covalent; Cys273; tRNA-Trp 34-mer substrate. The method, then:
i6A-37 tRNA formation followed by LC-MS after preincubation on Sf_MiaA | preincubation of 10-F05 with MiaA decreased the initial velocity of modified tRNA forming rate

In a further assay the target is T7, Sf_PdxY (Shigella flexneri, UniProt Q83KY1).
T7 construct: gene pdxY; recombinant, purified from E. coli BL21; also native protein in live S. flexneri M90T (ABPP row)
T7 sequence (Q83KY1 1-287): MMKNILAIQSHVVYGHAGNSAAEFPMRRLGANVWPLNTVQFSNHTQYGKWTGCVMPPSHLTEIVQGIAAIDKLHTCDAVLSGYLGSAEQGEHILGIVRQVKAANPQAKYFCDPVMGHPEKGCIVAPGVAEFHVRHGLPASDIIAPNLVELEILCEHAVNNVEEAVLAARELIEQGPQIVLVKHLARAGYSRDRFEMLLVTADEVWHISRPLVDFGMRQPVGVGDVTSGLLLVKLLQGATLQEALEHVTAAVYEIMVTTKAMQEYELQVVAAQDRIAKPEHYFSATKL
In words: in-gel fluorescence competition with 5-TMRIA. The assay is classed as binding. To be noted: covalent; 1 h preincubation.

The target of a further assay is T8, Sf_FabH (Shigella flexneri, UniProt Q83RS8).
T8 construct: gene fabH; recombinant, purified from E. coli BL21; also native protein in live S. flexneri M90T (ABPP rows)
T8 sequence (Q83RS8 1-317): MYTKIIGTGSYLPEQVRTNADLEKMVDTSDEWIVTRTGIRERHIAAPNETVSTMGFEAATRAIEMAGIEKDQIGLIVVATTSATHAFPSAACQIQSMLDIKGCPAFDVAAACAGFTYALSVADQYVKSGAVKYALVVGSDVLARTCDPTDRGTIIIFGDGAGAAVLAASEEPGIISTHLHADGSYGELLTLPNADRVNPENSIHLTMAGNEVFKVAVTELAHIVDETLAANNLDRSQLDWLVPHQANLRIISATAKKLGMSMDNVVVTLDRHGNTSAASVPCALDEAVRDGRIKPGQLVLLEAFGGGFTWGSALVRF
In words: in-gel fluorescence competition with 5-TMRIA. The assay is classed as binding. To be noted: covalent; 1 h preincubation.

The test system of another assay is T9, K. pneumoniae 700603.
T9 construct: 700603
As to the kind of experiment: microbe, parasite or virus in culture. Details: species or system bacterial strain; broth microdilution MIC, OD600, lowest concentration without visible bacterial growth. To be noted: Klebsiella pneumoniae, 700603, read-out: 10-F05 MIC µM. The procedure: as §1

The test system of another assay is T10, A. baumannii BAA-1790.
T10 construct: BAA-1790
As to the kind of experiment: microbe, parasite or virus in culture. Set-up: species or system bacterial strain; broth microdilution MIC, OD600, lowest concentration without visible bacterial growth. To be noted: Acinetobacter baumannii, BAA1790, read-out: 10-F05 MIC µM. The method, then:
as §1

In a further assay the test system is T11, E. cloacae 13047.
T11 construct: 13047
As to the kind of experiment: microbe, parasite or virus in culture. Set-up: species or system bacterial strain; broth microdilution MIC, OD600, lowest concentration without visible bacterial growth. To be noted: Enterobacter cloacae, 13047, read-out: 10-F05 MIC µM. The procedure: as §1

The next assay relates to T12, E. coli (KPC+) BAA-2340.
T12 construct: BAA-2340 (KPC+)
In words: microbe, parasite or virus in culture. Set-up: species or system bacterial strain; broth microdilution MIC, OD600, lowest concentration without visible bacterial growth. To be noted: Escherichia coli, BAA2340, read-out: 10-F05 MIC µM. The method, then: as §1

The test system of another assay is T13, K. pneumoniae 13883.
T13 construct: 13883
As to the kind of experiment: microbe, parasite or virus in culture. Details: species or system bacterial strain; broth microdilution MIC, OD600, lowest concentration without visible bacterial growth. The following applies: Klebsiella pneumoniae, 13883, read-out: 10-F05 MIC µM. The method, then: as §1

For the next assay, the system named is T14, P. aeruginosa BAA-2110.
T14 construct: BAA-2110
In words: microbe, parasite or virus in culture. Details: species or system bacterial strain; broth microdilution MIC, OD600, lowest concentration without visible bacterial growth. The following applies: Pseudomonas aeruginosa, BAA2110, read-out: 10-F05 MIC µM. The method, then: as §1

Take `O=C(CCl)c1cn(-c2cccc(C(F)(F)F)c2)nn1` [10-C09]: the MIC with V. cholerae SAD30 came out at 100 µM (≈ 29 µg/mL); in the assay with E. coli JPN15 it was 100 µM (≈ 29 µg/mL); in the assay on S. aureus MSSA476, 25 µM (≈ 7.24 µg/mL); in the assay on S. flexneri M90T [1] it was 25 µM (≈ 7.24 µg/mL).

With `CC(=O)c1cn(-c2ccc(F)cc2)nn1` [10-F05-N], the MIC in the assay with S. flexneri M90T [2], with V. cholerae SAD30, in the assay with E. coli JPN15 and with S. aureus MSSA476 was over 100 µM throughout.

Take `O=C(CCl)c1cn(-c2ccc(F)cc2)nn1` [10-F05]: the “in-gel fluorescence competition with 5-TMRIA” value at Sf_MiaA [3] was “indicating 10-F05 specifically reacts with MiaA Cys273”; on Sa_FabH, 10-F05 was able to bind with S. aureus FabH (Sa_FabH, Figure 5C); on Sf_PdxY it was “preincubation of 10-F05 decreased the 5-TMRIA labeling in a dose-dependent manner (Figure 5A)”; on Sf_FabH, “rapid covalent bond formation between 10-F05 and Sf_FabH (Figure 5B)”. Besides, at Sf_MiaA [4], the “fold decrease in initial velocity” value turned out to be 1.7 fold. Moreover, the MIC in the assay with V. cholerae SAD30 was 10 µM (≈ 2.4 µg/mL); with K. pneumoniae 700603 it was over 100 µM; in the assay on E. coli JPN15, 25 µM (≈ 5.99 µg/mL); in the assay on A. baumannii BAA-1790, over 100 µM; with E. cloacae 13047, 50 µM (≈ 12 µg/mL); with S. aureus MSSA476, 10 µM (≈ 2.4 µg/mL). Further, the MIC was 2.5 µM (≈ 0.599 µg/mL) in the assay with S. flexneri M90T [1], 50 µM (≈ 12 µg/mL) in the assay with E. coli (KPC+) BAA-2340, 50 µM (≈ 12 µg/mL) with K. pneumoniae 13883 and over 100 µM in the assay on P. aeruginosa BAA-2110.

Take `CC(=O)c1cnccc1F` [10-I09-N]: the MIC with S. flexneri M90T [2], with V. cholerae SAD30, in the assay on E. coli JPN15 and in the assay on S. aureus MSSA476 was over 100 µM throughout.

For the molecule `CC(=O)c1ccccn1` [10-J03-N], the MIC in the assay with S. flexneri M90T [2], in the assay on V. cholerae SAD30, in the assay with E. coli JPN15 and in the assay on S. aureus MSSA476 was over 100 µM in each case.

With `CC(=O)c1cn(-c2cccc(C)c2)nn1` [10-L07-N], the MIC in the assay with S. flexneri M90T [2], in the assay with V. cholerae SAD30, with E. coli JPN15 and with S. aureus MSSA476 was over 100 µM in each case.

Consider `Cc1cccc(-n2cc(C(=O)CCl)nn2)c1` [10-L07], for which the MIC with V. cholerae SAD30 was 25 µM (≈ 5.89 µg/mL); with E. coli JPN15, 50 µM (≈ 11.8 µg/mL); in the assay on S. aureus MSSA476, 10 µM (≈ 2.36 µg/mL); with S. flexneri M90T [1] it was 5 µM (≈ 1.18 µg/mL).

In the case of `Cn1cc(C(=O)CCl)nn1` [10-M19], the MIC came to 50 µM (≈ 7.98 µg/mL) with V. cholerae SAD30, 50 µM (≈ 7.98 µg/mL) in the assay on E. coli JPN15, 100 µM (≈ 16 µg/mL) in the assay with S. aureus MSSA476 and 50 µM (≈ 7.98 µg/mL) with S. flexneri M90T [1].
